Experimental data from PMC12532338, “Characterization of a sesquiterpene synthase and a short-chain dehydrogenase in zerumbone biosynthesis and the applications in engineered Saccharomyces cerevisiae” (Frontiers in Plant Science, 2025).

Target: T1, CwTPS8 (Curcuma wenyujin, UniProt A0A8E5B8H5)
T1 construct: complete ORF in pMAL-His (pMAL-c2x with His(8)-tag), E. coli BL21(DE3), Ni-NTA purified; tag removal not described
Assay: GC-MS of hexane-extracted products
Type: biochemical
Conditions: formation of main product β-caryophyllene; 50 mM HEPES pH 7.5, 10 mM MgCl2, 5 mM DTT, 5% glycerol; 30°C, 10 min; 10-150 µM FPP; read-out: K m of β-caryophyllene

T1 sequence (A0A8E5B8H5 entry or part of it): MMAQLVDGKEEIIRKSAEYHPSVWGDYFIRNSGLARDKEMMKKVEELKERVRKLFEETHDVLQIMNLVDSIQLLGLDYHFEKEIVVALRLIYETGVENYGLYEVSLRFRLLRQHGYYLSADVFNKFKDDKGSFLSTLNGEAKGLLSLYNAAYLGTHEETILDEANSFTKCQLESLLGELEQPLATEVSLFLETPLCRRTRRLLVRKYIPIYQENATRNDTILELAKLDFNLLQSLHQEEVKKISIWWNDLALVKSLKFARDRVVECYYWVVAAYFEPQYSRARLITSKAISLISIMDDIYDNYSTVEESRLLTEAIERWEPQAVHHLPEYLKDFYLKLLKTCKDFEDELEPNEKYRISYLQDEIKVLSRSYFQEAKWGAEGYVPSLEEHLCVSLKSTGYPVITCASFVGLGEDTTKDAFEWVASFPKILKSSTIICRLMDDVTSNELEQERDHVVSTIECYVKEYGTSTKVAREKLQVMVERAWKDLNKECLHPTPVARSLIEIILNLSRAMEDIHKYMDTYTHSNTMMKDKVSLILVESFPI

- Km: 28 µM
SMILES: CC(C)=CCC/C(C)=C/CC/C(C)=C/CO[P@@](=O)(O)OP(=O)(O)O [FPP]
